Assay results from publication PMC12175177 (Frontiers in Pharmacology, 2025).
Read-outs that look alike come from different tables or passages of the source.

What was measured:
Format in all cases: cell-based
[1] = tested on: SARS-CoV-2 A2.5 variant
[2] = tested on: SARS-CoV-2 Delta variant
[3] = tested on: SARS-CoV-2 A2.5 variant (M2169)
[4] = tested on: SARS-CoV-2 A2.5 variant; experiment: microbe, parasite or virus in culture
[5] = tested on: SARS-CoV-2 Delta variant; remark: listed apart in the source
[6] = tested on: SARS-CoV-2 Delta variant (SEQ203); details: for % inhibition Vero E6 Delta MOI 0.0001: 1x
[7] = Severe acute respiratory syndrome coronavirus 2, Vero C1008, 72 h, read-out: IC50%
[8] = Severe acute respiratory syndrome coronavirus 2, Vero C1008, 72 h, read-out: IC50% in µg/mL
[9] = Severe acute respiratory syndrome coronavirus 2, Vero C1008, read-out: IC50 (Figure 4 curve)
[10] = Severe acute respiratory syndrome coronavirus 2, Vero C1008, read-out: IC90%
[11] = Severe acute respiratory syndrome coronavirus 2, Vero C1008, read-out: IC90% in µg/mL

**Q.** For `CCN(CC)CCCC(C)Nc1ccnc2cc(Cl)ccc12` (centres unmarked) [Chloroquine diphosphate (CQ), Chloroquine diphosphate], which “period of most of the inhibitory effect, A2.5” value [1] is on record?
**A.** during the adsorption phase

**Q.** And the “less susceptible to CQ than to PQ, A2.5” value ([1]; Vero-E6, same time interval)?
**A.** 2–4 orders of magnitude

**Q.** What about the “period of most of the inhibitory effect, Delta” value [2] of the same compound?
**A.** during the adsorption phase

**Q.** And the “less susceptible to CQ than to PQ, Delta” value ([2]; Vero-E6, same time interval)?
**A.** 2–4 orders of magnitude

**Q.** What about the “inhibition of A.2.5 infection in Calu-3 compared to camostat (CAM)” value ([3]; Calu-3) of the same compound?
**A.** two-fold less

**Q.** And the IC50 [4, 7]?
**A.** 6.3 µM

**Q.** What about the IC50 [4, 8] of the same compound?
**A.** 2 µg/mL

**Q.** What about the IC50 [4, 9] of the same compound?
**A.** 6.27 µM

**Q.** What about the IC90 [4, 10] of the same compound?
**A.** 56.7 µM

**Q.** What about the IC90 [4, 11] of the same compound?
**A.** 18.1 µg/mL

**Q.** What about the “antiviral effect, treatment 1 hour post-infection, Delta” value [5] of the same compound?
**A.** dose-dependent antiviral effect

**Q.** And the “effect on viral replication, treatment 1 hour pre-infection, Delta” value [5]?
**A.** did not influence the viral replication

**Q.** And the “antiviral inhibition at MOI = 0.00001” value [6]?
**A.** ≥ 20%

**Q.** And the “less potent against the Delta compared to the A2.5 variant” value [6]?
**A.** 20%

**Q.** And the “% inhibition Vero E6 Delta MOI 0.0001” value ([6]; at MNCC, […], 48 h)?
**A.** 44%

**Q.** Which results are given for `COc1cc(NC(C)CCCN)c2ncccc2c1` (centres unmarked) [Primaquine Phosphate (PQ), Primaquine Phosphate]?
**A.** effect on viral load, time of addition, A2.5 [1]: substantially lower viral load; period of most of the inhibitory effect, A2.5 [1]: ≤ 3 h; effect on viral load, time of addition, Delta [2]: substantially lower viral load; period of most of the inhibitory effect, Delta [2]: ≤ 5 h; % inhibition Calu-3 A2.5 MOI 0.01 ([3]; at MNCC, […], 48 h, mean 2x): 10%; IC50 [4, 7]: 15.3 µM; IC50 [4, 8]: 5 µg/mL; IC50 [4, 9]: 19.3 µM; IC90 [4, 10]: 138 µM; IC90 [4, 11]: 35.7 µg/mL; antiviral effect, treatment 1 hour post-infection, Delta [5]: dose-dependent antiviral effect; effect on viral replication, treatment 1 hour pre-infection, Delta [5]: did not influence the viral replication; % inhibition Vero E6 Delta MOI 0.0001 ([6]; at MNCC, […], 48 h): 2%; % inhibition Vero E6 Delta MOI 0.01 ([6]; at MNCC, […], 48 h, mean 2x): 18%
